These molecules were tested on HCV 1b-Con1 replicon (assay: HCV 1b-Con1 replicon assay in the presence of 5% FBS). Settings: Hepatitis C virus.
Type: cell-based
COC(=O)N[C@H](C(=O)N1CCC[C@H]1c1nc2cc([C@H]3CC[C@H](c4ccc5[nH]c([C@@H]6CCCN6C(=O)[C@@H](NC(=O)OC)C6CCCCC6)nc5c4)N3c3cc(F)c(N4CCCCC4)c(F)c3)ccc2[nH]1)C1CCCCC1 [Example 5.6, dimethyl ({(2R,5R)-1-[3,5-difluoro-4-(piperidin-1-yl)phenyl]pyrrolidine-2,5-diyl}bis{1H-benzimidazole-5,2-diyl(2S)pyrrolidine-2,1-diyl [(1S)-1-cyclohexyl-2-oxoethane-2,1-diyl]})biscarbamate] was tested, and the EC50 was < 0.1 nM.
In the case of COC(=O)N[C@H](C(=O)N1C[C@H](F)C[C@H]1c1nc2cc([C@H]3CC[C@H](c4ccc5[nH]c([C@@H]6C[C@@H](F)CN6C(=O)[C@@H](NC(=O)OC)C(C)C)nc5c4)N3c3cc(F)c(N4CCCCC4)c(F)c3)ccc2[nH]1)C(C)C [Example 4.59, methyl {(2S)-1-[(2S,4R)-2-{5-[(2R,5R)-1-[3,5-difluoro-4-(piperidin-1-yl)phenyl]-5-{2-[(2S,4R)-4-fluoro-1-{(2S)-2-[(methoxycarbonyl)amino]-3-methylbutanoyl}pyrrolidin-2-yl]-1H-benzimidazol-5-yl}pyrrolidin-2-yl]-1H-benzimidazol-2-yl}-4-fluoropyrrolidin-1-yl]-3-methyl-1-oxobutan-2-yl}carbamate], the EC50 is reported as < 0.1 nM.
With COC(=O)N[C@H](C(=O)N1CCC[C@H]1c1nc2cc([C@H]3CC[C@H](c4ccc5[nH]c([C@@H]6CCCN6C(=O)[C@@H](NC(=O)OC)C(C)C)nc5c4)N3c3cc(F)c(N4CCC(c5ccccc5)(c5ccccc5)CC4)c(F)c3)ccc2[nH]1)C(C)C [Example 5.2, methyl {(2S)-1-[(2S)-2-{5-[(2R,5R)-1-[4-(4,4-diphenylpiperidin-1-yl)-3,5-difluorophenyl]-5-{2-[(2S)-1-{(2S)-2-[(methoxycarbonyl)amino]-3-methylbutanoyl}pyrrolidin-2-yl]-1H-benzimidazol-5-yl}pyrrolidin-2-yl]-1H-benzimidazol-2-yl}pyrrolidin-1-yl]-3-methyl-1-oxobutan-2-yl}carbamate] the EC50 was < 0.1 nM.
In the case of COC(=O)N[C@H](C(=O)N1CCC[C@H]1c1nc2cc([C@H]3CC[C@H](c4ccc5[nH]c([C@@H]6CCCN6C(=O)[C@@H](NC(=O)OC)C(C)(C)C)nc5c4)N3c3cc(F)c(N4CCC(c5ccccc5)CC4)c(F)c3)ccc2[nH]1)C(C)(C)C [Example 5.4, methyl {(2S)-1-[(2S)-2-{5-[(2R,5R)-1-[3,5-difluoro-4-(4-phenylpiperidin-1-yl)phenyl]-5-{2-[(2S)-1-{(2S)-2-[(methoxycarbonyl)amino]-3,3-dimethylbutanoyl}pyrrolidin-2-yl]-1H-benzimidazol-5-yl}pyrrolidin-2-yl]-1H-benzimidazol-2-yl}pyrrolidin-1-yl]-3,3-dimethyl-1-oxobutan-2-yl}carbamate], the EC50 is reported as < 0.1 nM.
For COC(=O)N[C@H](C(=O)N1[C@H](c2nc3cc([C@H]4CC[C@H](c5ccc6[nH]c([C@@H]7C[C@@H]8CCC[C@@H]8N7C(=O)[C@@H](NC(=O)OC)C(C)C)nc6c5)N4c4cc(F)c(N5CCC(c6ccccc6)CC5)c(F)c4)ccc3[nH]2)C[C@@H]2CCC[C@@H]21)C(C)C [Example 3.28, methyl {(2S)-1-[(2S,3aS,6aS)-2-{5-[(2R,5R)-1-[3,5-difluoro-4-(4-phenylpiperidin-1-yl)phenyl]-5-{2-[(2S,3aS,6aS)-1-{(2S)-2-[(methoxycarbonyl)amino]-3-methylbutanoyl}octahydrocyclopenta[b]pyrrol-2-yl]-1H-benzimidazol-5-yl}pyrrolidin-2-yl]-1H-benzimidazol-2-yl}hexahydrocyclopenta[b]pyrrol-1(2H)-yl]-3-methyl-1-oxobutan-2-yl}carbamate], the EC50 was < 0.1 nM.
In the case of COC(=O)N[C@H](C(=O)N1CCC[C@H]1c1nc2cc([C@H]3CC[C@H](c4cc5nc([C@@H]6CCCN6C(=O)[C@@H](NC(=O)OC)C6CCOCC6)[nH]c5cc4F)N3c3cc(F)c(N4CCC(C(C)(C)C)CC4)c(F)c3)c(F)cc2[nH]1)C1CCOCC1 [Example 6.14, dimethyl ({(2R,5R)-1-[4-(4-tert-butylpiperidin-1-yl)-3,5-difluorophenyl]pyrrolidine-2,5-diyl}bis{(6-fluoro-1H-benzimidazole-5,2-diyl)(2S)pyrrolidine-2,1-diyl [(1S)-2-oxo-1-(tetrahydro-2H-pyran-4-yl)ethane-2,1-diyl]}) biscarbamate], the EC50 is reported as < 0.1 nM.
For COC(=O)N[C@H](C(=O)N1CCC[C@H]1c1nc2c(F)c([C@H]3CC[C@@H](c4ccc5nc([C@@H]6CCCN6C(=O)[C@@H](NC(=O)OC)C(C)C)[nH]c5c4F)N3c3ccc(C(C)(C)C)cc3)ccc2[nH]1)C(C)C [Example 6.4, methyl {(2S)-1-[(2S)-2-{5-[(2R,5S)-1-(4-tert-butylphenyl)-5-{7-fluoro-2-[(2S)-1-{(2S)-2-[(methoxycarbonyl)amino]-3-methylbutanoyl}pyrrolidin-2-yl]-1H-benzimidazol-6-yl}pyrrolidin-2-yl]-4-fluoro-1H-benzimidazol-2-yl}pyrrolidin-1-yl]-3-methyl-1-oxobutan-2-yl}carbamate], the EC50 was < 0.1 nM.
For COC(=O)N[C@H](C(=O)N1CCC[C@H]1c1nc2cc([C@H]3CC[C@H](c4cc5nc([C@@H]6CCCN6C(=O)[C@@H](NC(=O)OC)[C@@H](C)OC)[nH]c5cc4F)N3c3cc(F)c(N4CCC(c5ccc(F)cc5)CC4)c(F)c3)c(F)cc2[nH]1)[C@@H](C)OC [Example 3.52, methyl {(2S,3R)-1-[(2S)-2-{5-[(2R,5R)-1-{3,5-difluoro-4-[4-(4-fluorophenyl)piperidin-1-yl]phenyl}-5-(6-fluoro-2-{(2S)-1-[N-(methoxycarbonyl)-O-methyl-L-threonyl]pyrrolidin-2-yl}-1H-benzimidazol-5-yl)pyrrolidin-2-yl]-6-fluoro-1H-benzimidazol-2-yl}pyrrolidin-1-yl]-3-methoxy-1-oxobutan-2-yl}carbamate], the EC50 was < 0.1 nM.
For COC(=O)N[C@H](C(=O)N1CCC[C@H]1c1nc2cc([C@H]3CC[C@H](c4cc5nc([C@@H]6CCCN6C(=O)[C@@H](NC(=O)OC)C(C)C)[nH]c5cc4F)N3c3cc(F)c(N4CCC(c5ccc(C)s5)CC4)c(F)c3)c(F)cc2[nH]1)C(C)C [Example 4.61, methyl {(2S)-1-[(2S)-2-{5-[(2R,5R)-1-{3,5-difluoro-4-[4-(5-methyl-2-thienyl)piperidin-1-yl]phenyl}-5-{6-fluoro-2-[(2S)-1-{(2S)-2-[(methoxycarbonyl)amino]-3-methylbutanoyl}pyrrolidin-2-yl]-1H-benzimidazol-5-yl}pyrrolidin-2-yl]-6-fluoro-1H-benzimidazol-2-yl}pyrrolidin-1-yl]-3-methyl-1-oxobutan-2-yl}carbamate], the EC50 was < 0.1 nM.
COC(=O)N[C@H](C(=O)N1CCC[C@H]1c1nc2cc(C3CCC(c4cc5nc([C@@H]6CCCN6C(=O)[C@@H](NC(=O)OC)C(C)C)[nH]c5cc4F)N3c3cc(F)c(N4C[C@@H](C)O[C@@H](C)C4)c(F)c3)c(F)cc2[nH]1)C(C)C (stereo partly drawn) [Example 4.51] was tested, and the EC50 was < 0.1 nM.
With COC(=O)N[C@H](C(=O)N1CCC[C@H]1c1nc2cc([C@H]3CC[C@H](c4cc5nc([C@@H]6CCCN6C(=O)[C@@H](NC(=O)OC)C(C)C)[nH]c5cc4F)N3c3cc(F)c(N4CCN(c5ncccn5)CC4)c(F)c3)c(F)cc2[nH]1)C(C)C [Example 4.60, methyl {(2S)-1-[(2S)-2-{5-[(2R,5R)-1-{3,5-difluoro-4-[4-(pyrimidin-2-yl)piperazin-1-yl]phenyl}-5-{6-fluoro-2-[(2S)-1-{(2S)-2-[(methoxycarbonyl)amino]-3-methylbutanoyl}pyrrolidin-2-yl]-1H-benzimidazol-5-yl}pyrrolidin-2-yl]-6-fluoro-1H-benzimidazol-2-yl}pyrrolidin-1-yl]-3-methyl-1-oxobutan-2-yl}carbamate] the EC50 was < 0.1 nM.
With COC(=O)N[C@H](C(=O)N1C[C@H](OC)C[C@H]1c1nc2cc([C@H]3CC[C@H](c4ccc5[nH]c([C@@H]6C[C@@H](OC)CN6C(=O)[C@@H](NC(=O)OC)C(C)C)nc5c4)N3c3cc(F)c(N4CCCCC4)c(F)c3)ccc2[nH]1)C(C)C [Example 5.5, methyl {(2S)-1-[(2S,4R)-2-{5-[(2R,5R)-1-[3,5-difluoro-4-(piperidin-1-yl)phenyl]-5-{2-[(2S,4R)-4-methoxy-1-{(2S)-2-[(methoxycarbonyl)amino]-3-methylbutanoyl}pyrrolidin-2-yl]-1H-benzimidazol-5-yl}pyrrolidin-2-yl]-1H-benzimidazol-2-yl}-4-methoxypyrrolidin-1-yl]-3-methyl-1-oxobutan-2-yl}carbamate] the EC50 was < 0.1 nM.
With COC(=O)N[C@H](C(=O)N1C[C@@H](F)C[C@H]1c1nc2cc([C@H]3CC[C@H](c4ccc5[nH]c([C@@H]6C[C@H](F)CN6C(=O)[C@@H](NC(=O)OC)C(C)C)nc5c4)N3c3ccc(C(C)(C)C)cc3)ccc2[nH]1)C(C)C [Example 3.12, methyl {(2S)-1-[(2S,4S)-2-{5-[(2R,5R)-1-(4-tert-butylphenyl)-5-{2-[(2S,45)-4-fluoro-1-{(2S)-2-[(methoxycarbonyl)amino]-3-methylbutanoyl}pyrrolidin-2-yl]-1H-benzimidazol-5-yl}pyrrolidin-2-yl]-1H-benzimidazol-2-yl}-4-fluoropyrrolidin-1-yl]-3-methyl-1-oxobutan-2-yl}carbamate] the EC50 was < 0.1 nM.
COC(=O)N[C@H](C(=O)N1CCC[C@H]1c1nc2cc([C@H]3CC[C@@H](c4cc5[nH]c([C@@H]6CCCN6C(=O)[C@@H](NC(=O)OC)C(C)C)nc5cc4F)N3c3ccc(C(C)(C)C)cc3)c(F)cc2[nH]1)C(C)C [Example 6.2, methyl {(2S)-1-[(2S)-2-{5-[(2R,5S)-1-(4-tert-butylphenyl)-5-{5-fluoro-2-[(2S)-1-(2S)-2-[(methoxycarbonyl)amino]-3-methylbutanoylpyrrolidin-2-yl]-1H-benzimidazol-6-yl}pyrrolidin-2-yl]-6-fluoro-1H-benzimidazol-2-yl}pyrrolidin-1-yl]-3-methyl-1-oxobutan-2-yl}carbamate] was tested, and the EC50 was < 0.1 nM.
For CCC(CC)C(NC(=O)OC)C(=O)N1CCC[C@H]1c1nc2cc([C@H]3CC[C@H](c4ccc5[nH]c([C@@H]6CCCN6C(=O)C(NC(=O)OC)C(CC)CC)nc5c4)N3c3cc(F)c(N4CCC(c5ccccc5)CC4)c(F)c3)ccc2[nH]1 (stereo partly drawn) [Example 3.29, methyl {1-[(2S)-2-{5-[(2R,5R)-1-[3,5-difluoro-4-(4-phenylpiperidin-1-yl)phenyl]-5-{2-[(2S)-1-{3-ethyl-2-[(methoxycarbonyl)amino]pentanoyl}pyrrolidin-2-yl]-1H-benzimidazol-5-yl}pyrrolidin-2-yl]-1H-benzimidazol-2-yl}pyrrolidin-1-yl]-3-ethyl-1-oxopentan-2-yl}carbamate], the EC50 was < 0.1 nM.

Reference: patent publication US20120220562A1, “Anti-Viral Compounds” (ABBOTT LABAORATORIES, priority 2011, published 2012)
